{
  "source": "patent US20240139147A1",
  "about": "“METHOD FOR IMPROVING BIOAVAILABILITY OF NAD+ DERIVATIVES” (HOBOOMLIFE BIO-TECHNOLOGY (SHENZHEN) CO., LTD., priority 2022, published 2024)",
  "key": {"NAD+ [1]": {"test_system": "NAD+", "assay": "Increasing the level of NAD+ by controlled-release NR microsphere 4, blood NAD+ by HPLC (Example 6)", "type": "in vivo", "details": "SD rats, intragastric; for NAD+ level in blood: 100 mg/kg NR and/or 10 mg/kg apigenin", "method": "(§1) 20 SD rats weighing about 200 g were purchased, and an experiment was carried out after one week of adaptive feeding. The 20 rats were divided into 5 groups, 4 rats per group (half male and half female). The rats in group 1 were not treated, the rats in group 2 were administered intragastrically with 100 mg/kg of NR, the rats in group 3 were administered intragastrically with 10 mg/kg of apigenin, the rats in group 4 were administered intragastrically with 100 mg/kg of NR and 10 mg/kg of apigenin at the same time, and the rats in group 5 were administered intragastrically with the controlled-release NR microspheres 4 containing 100 mg/kg of NR and 10 mg/kg of apigenin.\nBlood was collected from the rat in each groups via the tail vein at time points of 2 h, 2.5 h, 3 h, 3.5 h, 4 h, 4.5 h, 5 h, 5.5 h, and 6 h, respectively, after intragastric administration of corresponding microspheres, and 0.1 mL of blood was collected each time by each rat. After the vein blood collected from each rat at each time point was treated, the NAD+ level in the blood sample was tested by high performance liquid chromatography (HPLC). The test results of 4 rats in each group were averaged."}, "NAD+ [2]": {"test_system": "NAD+", "assay": "Increasing the level of NAD+ by controlled-release NR microspheres 4, 7, 8, blood NAD+ by HPLC (Example 12)", "type": "in vivo", "details": "SD rats, intragastric; for Content of NAD+ in blood: 100 mg/kg NR and/or 10 mg/kg apigenin", "method": "as §1, with “28 SD rats” for “20 SD rats”, “feeding. The 28 rats were” for “feeding. The 20 rats were”, “divided into 7 groups, 4” for “divided into 5 groups, 4”, “same time, the rats” for “same time, and the rats”, “mg/kg of apigenin, the rats in group 6 were administered intragastrically with the controlled-release NR microspheres 7 containing 100 mg/kg of NR and 10 mg/kg of apigenin, and the rats in group 7 were administered intragastrically with the controlled-release NR microspheres 8 containing 100 mg/kg of NR and 10 mg/kg of apigenin.” for “mg/kg of apigenin.”\nBlood was collected from each rat in the groups via the tail vein at time points of 2 h, 2.5 h, 3 h, 3.5 h, 4 h, 4.5 h, 5 h, 5.5 h, and 6 h, respectively, after intragastric administration of corresponding microspheres, and 0.1 mL of blood was collected each time by each rat. After the vein blood collected from the rat in each groups at each time point was treated, the NAD+ level in the blood sample was tested by high performance liquid chromatography (HPLC). The test results of 4 rats in each group were averaged. […] There are time differences between a peak of the releasing of apigenin and a peak of the releasing of NR in the controlled-release […], the controlled-release NR microsphere 7, and the controlled-release NR microsphere 8 that are prepared based on different ratios of apigenin (the CD38 inhibitor) to NR, and the time differences between a peak of the releasing of apigenin and a peak of the releasing of NR in the three microspheres are consistent and are all 0.5-1.5 h."}, "NAD+ [3]": {"test_system": "NAD+", "assay": "Increasing the level of NAD+ by controlled-release NR microspheres 4, 11, 12, blood NAD+ by HPLC (Example 18)", "type": "in vivo", "details": "SD rats, intragastric; for NAD+ level in blood: 100 mg/kg NR and/or 10 mg/kg apigenin", "method": "as §1, with “28 SD” for “20 SD”, “The 28” for “The 20”, “into 7” for “into 5”, “of apigenin,” for “of apigenin at the same time, and”, “microspheres 2 containing 100 mg/kg of NR and 10 mg/kg of apigenin, the rats in group 6 were administered intragastrically with the controlled-release NR microspheres 11 containing 100 mg/kg of NR and 10 mg/kg of apigenin, and the rats in group 7 were administered intragastrically with the controlled-release NR microspheres 12” for “microspheres 4”\nBlood was collected from rat the in each groups via the tail vein at time points of 2 h, 2.5 h, 3 h, 3.5 h, 4 h, 4.5 h, 5 h, 5.5 h, and 6 h, respectively, after intragastric administration of corresponding microspheres, and 0.1 mL of blood was collected each time by each rat. After the vein blood collected from each rat in the groups at each time point was treated, the NAD+ level in the blood sample was tested by high performance liquid chromatography (HPLC). The test results of 4 rats in each group were averaged. […] There are time differences between a peak of the releasing of apigenin and a peak of the releasing NR in the controlled-release NR microsphere 4, the controlled-release NR microsphere 11, and the controlled-release NR microsphere 12 that are prepared based on different mass ratios of apigenin (the CD38 inhibitor) to the excipient and different mass ratios of NR to the excipient, and the time differences between a peak of the releasing of apigenin and a peak of the releasing NR in the three microspheres are consistent and are all about 0.5 h to 1.5 h."}, "[4]": {"details": "in vivo; cited from earlier work"}},
  "data": [
    {"smiles": "O=c1cc(-c2ccc(O)cc2)oc2cc(O)cc(O)c12", "note": "[Apigenin, apigenin]", "values": [
      {"measurement": "level of NAD+ in the rat compared with the blank group (in words)", "setting": "NAD+ [1]", "result": "can increase the level of NAD+ in the rat"},
      {"measurement": "NAD+ level in blood", "setting": "NAD+ [1]; 2 h", "result": 141, "unit": "µM"},
      {"measurement": "NAD+ level in blood", "setting": "NAD+ [1]; 2.5 h", "result": 148, "unit": "µM"},
      {"measurement": "NAD+ level in blood", "setting": "NAD+ [1]; 3 h", "result": 176, "unit": "µM"},
      {"measurement": "NAD+ level in blood", "setting": "NAD+ [1]; 3.5 h", "result": 171, "unit": "µM"},
      {"measurement": "NAD+ level in blood", "setting": "NAD+ [1]; 4 h", "result": 160, "unit": "µM"},
      {"measurement": "NAD+ level in blood", "setting": "NAD+ [1]; 4.5 h", "result": 156, "unit": "µM"},
      {"measurement": "NAD+ level in blood", "setting": "NAD+ [1]; 5 h", "result": 143, "unit": "µM"},
      {"measurement": "NAD+ level in blood", "setting": "NAD+ [1]; 5.5 h", "result": 144, "unit": "µM"},
      {"measurement": "NAD+ level in blood", "setting": "NAD+ [1]; 6 h", "result": 138, "unit": "µM"},
      {"measurement": "level of NAD+ in the rat compared with the blank group (in words)", "setting": "NAD+ [2]", "result": "can increase the level of NAD+ in the rat"},
      {"measurement": "Content of NAD+ in blood", "setting": "NAD+ [2]; 2 h", "result": 144, "unit": "µM"},
      {"measurement": "Content of NAD+ in blood", "setting": "NAD+ [2]; 2.5 h", "result": 153, "unit": "µM"},
      {"measurement": "Content of NAD+ in blood", "setting": "NAD+ [2]; 3 h", "result": 184, "unit": "µM"},
      {"measurement": "Content of NAD+ in blood", "setting": "NAD+ [2]; 3.5 h", "result": 175, "unit": "µM"},
      {"measurement": "Content of NAD+ in blood", "setting": "NAD+ [2]; 4 h", "result": 163, "unit": "µM"},
      {"measurement": "Content of NAD+ in blood", "setting": "NAD+ [2]; 4.5 h", "result": 159, "unit": "µM"},
      {"measurement": "Content of NAD+ in blood", "setting": "NAD+ [2]; 5 h", "result": 146, "unit": "µM"},
      {"measurement": "Content of NAD+ in blood", "setting": "NAD+ [2]; 5.5 h", "result": 139, "unit": "µM"},
      {"measurement": "Content of NAD+ in blood", "setting": "NAD+ [2]; 6 h", "result": 141, "unit": "µM"},
      {"measurement": "level of NAD+ in the rat compared with the blank group (in words)", "setting": "NAD+ [3]", "result": "can increase the level of NAD+ in the rat"},
      {"measurement": "NAD+ level in blood", "setting": "NAD+ [3]; 2 h", "result": 132, "unit": "µM"},
      {"measurement": "NAD+ level in blood", "setting": "NAD+ [3]; 2.5 h", "result": 150, "unit": "µM"},
      {"measurement": "NAD+ level in blood", "setting": "NAD+ [3]; 3 h", "result": 179, "unit": "µM"},
      {"measurement": "NAD+ level in blood", "setting": "NAD+ [3]; 3.5 h", "result": 173, "unit": "µM"},
      {"measurement": "NAD+ level in blood", "setting": "NAD+ [3]; 4 h", "result": 161, "unit": "µM"},
      {"measurement": "NAD+ level in blood", "setting": "NAD+ [3]; 4.5 h", "result": 157, "unit": "µM"},
      {"measurement": "NAD+ level in blood", "setting": "NAD+ [3]; 5 h", "result": 166, "unit": "µM"},
      {"measurement": "NAD+ level in blood", "setting": "NAD+ [3]; 5.5 h", "result": 138, "unit": "µM"},
      {"measurement": "NAD+ level in blood", "setting": "NAD+ [3]; 6 h", "result": 140, "unit": "µM"},
      {"measurement": "Metabolic half-life", "setting": "[4]", "result": 91.8, "unit": "h"}
    ]},
    {"smiles": "NC(=O)c1ccc[n+]([C@@H]2O[C@H](CO)[C@@H](O)[C@H]2O)c1", "note": "[NR, nicotinamide riboside]", "values": [
      {"measurement": "level of NAD+ in the rat compared with the blank group (in words)", "setting": "NAD+ [1]", "result": "can increase the level of NAD+ in the rat"},
      {"measurement": "NAD+ level in blood", "setting": "NAD+ [1]; 2 h", "result": 131, "unit": "µM"},
      {"measurement": "NAD+ level in blood", "setting": "NAD+ [1]; 2.5 h", "result": 196, "unit": "µM"},
      {"measurement": "NAD+ level in blood", "setting": "NAD+ [1]; 3 h", "result": 181, "unit": "µM"},
      {"measurement": "NAD+ level in blood", "setting": "NAD+ [1]; 3.5 h", "result": 163, "unit": "µM"},
      {"measurement": "NAD+ level in blood", "setting": "NAD+ [1]; 4 h", "result": 142, "unit": "µM"},
      {"measurement": "NAD+ level in blood", "setting": "NAD+ [1]; 4.5 h", "result": 154, "unit": "µM"},
      {"measurement": "NAD+ level in blood", "setting": "NAD+ [1]; 5 h", "result": 159, "unit": "µM"},
      {"measurement": "NAD+ level in blood", "setting": "NAD+ [1]; 5.5 h", "result": 139, "unit": "µM"},
      {"measurement": "NAD+ level in blood", "setting": "NAD+ [1]; 6 h", "result": 141, "unit": "µM"},
      {"measurement": "level of NAD+ in the rat compared with the blank group (in words)", "setting": "NAD+ [2]", "result": "can increase the level of NAD+ in the rat"},
      {"measurement": "Content of NAD+ in blood", "setting": "NAD+ [2]; 2 h", "result": 128, "unit": "µM"},
      {"measurement": "Content of NAD+ in blood", "setting": "NAD+ [2]; 2.5 h", "result": 200, "unit": "µM"},
      {"measurement": "Content of NAD+ in blood", "setting": "NAD+ [2]; 3 h", "result": 180, "unit": "µM"},
      {"measurement": "Content of NAD+ in blood", "setting": "NAD+ [2]; 3.5 h", "result": 159, "unit": "µM"},
      {"measurement": "Content of NAD+ in blood", "setting": "NAD+ [2]; 4 h", "result": 162, "unit": "µM"},
      {"measurement": "Content of NAD+ in blood", "setting": "NAD+ [2]; 4.5 h", "result": 157, "unit": "µM"},
      {"measurement": "Content of NAD+ in blood", "setting": "NAD+ [2]; 5 h", "result": 149, "unit": "µM"},
      {"measurement": "Content of NAD+ in blood", "setting": "NAD+ [2]; 5.5 h", "result": 142, "unit": "µM"},
      {"measurement": "Content of NAD+ in blood", "setting": "NAD+ [2]; 6 h", "result": 134, "unit": "µM"},
      {"measurement": "level of NAD+ in the rat compared with the blank group (in words)", "setting": "NAD+ [3]", "result": "can increase the level of NAD+ in the rat"},
      {"measurement": "NAD+ level in blood", "setting": "NAD+ [3]; 2 h", "result": 142, "unit": "µM"},
      {"measurement": "NAD+ level in blood", "setting": "NAD+ [3]; 2.5 h", "result": 203, "unit": "µM"},
      {"measurement": "NAD+ level in blood", "setting": "NAD+ [3]; 3 h", "result": 188, "unit": "µM"},
      {"measurement": "NAD+ level in blood", "setting": "NAD+ [3]; 3.5 h", "result": 154, "unit": "µM"},
      {"measurement": "NAD+ level in blood", "setting": "NAD+ [3]; 4 h", "result": 167, "unit": "µM"},
      {"measurement": "NAD+ level in blood", "setting": "NAD+ [3]; 4.5 h", "result": 152, "unit": "µM"},
      {"measurement": "NAD+ level in blood", "setting": "NAD+ [3]; 5 h", "result": 145, "unit": "µM"},
      {"measurement": "NAD+ level in blood", "setting": "NAD+ [3]; 5.5 h", "result": 144, "unit": "µM"},
      {"measurement": "NAD+ level in blood", "setting": "NAD+ [3]; 6 h", "result": 135, "unit": "µM"}
    ]}
  ]
}
